Laboratory results taken from patent US10350211B2, “Bumped kinase inhibitor compositions and methods for treating cancer” (UNIVERSITY OF WASHINGTON, priority 2015, dated 2019).

Legend:
PKD = conditions: cited from earlier work
[1] = test system: prostate cancer AR− as well as AR+ lines; conditions: cited from earlier work
[2] = test system: other human kinases beyond PKDs, including mutated Src; conditions: cited from earlier work
[3] = cited from earlier work
[4] = therapeutic levels cannot be obtained in vivo; cited from earlier work
MCF7 cell = assay: Breast cancer cell proliferation, MCF7; format: cell-based; conditions: 72 hours; tested at 0.2, 2, and 20 μM, concentration of the values not given
Experimental: (§1) MCF7 and MDA231 cell lines were plated at 2000 and 1000 cells/well, respectively. 24 hours later, BKI inhibitor of the disclosure was added to each well at concentrations of 0.2, 2, and 20 μM. After 72 hours, […] was used to measure cell growth.

MDA231 cell = assay: Breast cancer cell proliferation, MDA231; format: cell-based; conditions: 72 hours; tested at 0.2, 2, and 20 μM, concentration of the values not given
Experimental: as §1

PCa tumor = conditions: 60 mg/kg, 2× daily; cited from earlier work

Structure (SMILES)	MCF7 cell inhibition (%) (MCF7 cell)	MDA231 cell inhibition (%) (MDA231 cell)	other results
CC(C)(C)n1nc(-c2cccc3ccccc23)c2c(N)ncnc21 [Example 1NA-PP1]	–	–	PKD kinase activity (PKD): potently blocked; prostate cancer cell growth/proliferation [1]: potently blocked; off-target kinases [2]: target other human kinases beyond PKDs, including mutated Src; solubility [3]: low solubility; metabolism [4]: quickly metabolized
CC(C)(C)n1nc(Cc2cccc3ccccc23)c2c(N)ncnc21 [Example 1NM-PP1]	–	–	PKD kinase activity (PKD): potently blocked; prostate cancer cell growth/proliferation [1]: potently blocked; off-target kinases [2]: target other human kinases beyond PKDs, including mutated Src; solubility [3]: low solubility; metabolism [4]: quickly metabolized
CN1CCC(Cn2nc(-c3ccc4cc(OC5CC5)ccc4c3)c3c(N)ncnc32)CC1 [Example 4, 3-(6-Cyclopropoxynaphthalen-2-yl)-1-((1-methylpiperidin-4-yl)methyl)-1H-pyrazolo[3,4-d]pyrimidin-4-amine]	50%	60%	–
CCOc1ccc2cc(-c3nn(CC4CCN(C)CC4)c4ncnc(N)c34)ccc2n1 [Example 15, 3-(2-Ethoxyquinolin-6-yl)-1-((1-methylpiperidin-4-yl)methyl)-1H-pyrazolo[3,4-d]pyrimidin-4-amine]	40%	30%	–
CN1CCC(Cn2nc(-c3ccc4nc(OCC(F)(F)F)ccc4c3)c3c(N)ncnc32)CC1 [Example 16, 1-((1-Methylpiperidin-4-yl)methyl)-3-(2-(2,2,2-trifluoroethoxy)quinolin-6-yl)-1H-pyrazolo[3,4-d]pyrimidin-4-amine]	50%	90%	–
CC(C)(O)Cn1nc(-c2ccc3nc(OC4CC4)ccc3c2)c2c(N)ncnc21 [Example 25, 1-(4-Amino-3-(2-cyclopropoxyquinolin-6-yl)-1H-pyrazolo[3,4-d]pyrimidin-1-yl)-2-methylpropan-2-ol]	30%	20%	–
CCOc1ccc2ccc(-c3nn(CC4CCNCC4)c4ncnc(N)c34)cc2c1 [Example 51, 3-(7-ethoxynaphthalen-2-yl)-1-(piperidin-4-ylmethyl)-1H-pyrazolo[3,4-d]pyrimidin-4-amine]	97%	95%	–
CC(C)(O)Cn1cc(-c2ccc3nc(OC4CC4)ccc3c2)c2c(N)ncnc21 [Example 58, 1-(4-amino-5-(2-cyclopropoxyquinolin-6-yl)-7H-pyrrolo[2,3-d]pyrimidin-7-yl)-2-methylpropan-2-ol]	50%	10%	–
Nc1ncnc2c1c(-c1ccc3nc(OC4CC4)ccc3c1)nn2CC1(CO)COC1 [Example 67, (3-((4-amino-3-(2-cyclopropoxyquinolin-6-yl)-1H-pyrazolo[3,4-d]pyrimidin-1-yl)methyl)oxetan-3-yl)methanol]	40%	0%	–
CCOc1ccc2cc(-c3nn(C4CCN(CC)CC4)c4ncnc(N)c34)ccc2c1 [Example 109, 3-(6-ethoxynaphthalen-2-yl)-1-(1-ethylpiperidin-4-yl)-1H-pyrazolo[3,4-d]pyrimidin-4-amine]	50%	50%	–
CCOc1ccc2cc(-c3nn(C(C)C)c4ncnc(N)c34)ccc2n1 [Example 110, 3-(2-ethoxyquinolin-6-yl)-1-isopropyl-1H-pyrazolo[3,4-d]pyrimidin-4-amine]	30%	10%	–
CCOc1ccc2cc(-c3nn(C4CCNCC4)c4ncnc(N)c34)ccc2c1 [Example 111, 3-(6-ethoxynaphthalen-2-yl)-1-(piperidin-4-yl)-1H-pyrazolo[3,4-d]pyrimidin-4-amine]	70%	90%	–
CCOc1ccc2cc(-c3nc(CC4CCNCC4)n4ccnc(N)c34)ccc2c1 [Example 120, 1-(6-ethoxynaphthalen-2-yl)-3-(piperidin-4-ylmethyl)imidazo[1,5-a]pyrazin-8-amine]	30%	50%	–
CCOc1ccc2cc(-c3nn(CC4CCNCC4)c4ncnc(N)c34)ccc2n1 [Example 127, 3-(2-ethoxyquinolin-6-yl)-1-(piperidin-4-ylmethyl)-1H-pyrazolo[3,4-d]pyrimidin-4-amine]	50%	0%	–
CCOc1ccc2cc(-c3nn(CC4CCN(C)CC4)c4ncnc(N)c34)ccc2c1 [Example 128]	40%	50%	–
CCCOc1ccc2cc(-c3nn(CC4CCNCC4)c4ncnc(N)c34)ccc2c1 [Example 129, 1-(piperidin-4-ylmethyl)-3-(6-propoxynaphthalen-2-yl)-1H-pyrazolo[3,4-d]pyrimidin-4-amine]	75%	90%	–
CC(C)Oc1ccc2cc(-c3nn(CC4CCNCC4)c4ncnc(N)c34)ccc2c1 [Example 130, 3-(6-isopropoxynaphthalen-2-yl)-1-(piperidin-4-ylmethyl)-1H-pyrazolo[3,4-d]pyrimidin-4-amine]	30%	80%	–
Fc1ccc(Cl)cc1-c1nc(Nc2ccncc2)c2nccnc2n1 [SD-208]	–	–	PKD kinase activity (PKD): potently blocked; prostate cancer cell growth/proliferation [1]: potently blocked; PCa tumor growth (PCa tumor): decrease in PCa tumor growth
